test: RP, Waters ACQUITY UPLC HSS T3, 100 × 2.1 mm, 1.8 µm, 30 °C, 0.3 mL/min, estimated dead time 0.73 min; A: water + 0.1% formic acid, pH 3; B: methanol + 0.1% formic acid, pH 3; gradient (min/%B) 0/0 6/0 56/100 60/100; settings: stereoisomer not certain

SMILES | LC retention time
N[C@@H](CCC(=O)O)C(=O)O [L-glutamic acid] | 1.31 min
CCCCC/C=C\C/C=C\CCCCCCCC(=O)O [linoleic acid] | 53.6 min
CCCCCC=CCC=CCCCCCCCC(=O)OCC [ethyl linoleate] | 56.1 min
OCC1OC(Oc2cc3c(O)cc(O)cc3[o+]c2-c2ccc(O)cc2)C(O)C(O)C1O (stereo not drawn) [pelargonidin-3-glucoside] | 23.7 min
OCC1OC(OC2C(CO)OC(O)C(O)C2O)C(O)C(O)C1O (stereo not drawn) [cellobiose] | 1.55 min
CCCCCCCC(=O)O [octanoic acid] | 40 min
COc1cc(C=CCO)ccc1O [coniferyl alcohol] | 22.8 min
O=Cc1ccco1 [furfural] | 12.2 min
O=C(O)c1ccc2c(c1)OCO2 [piperonylic acid] | 26.7 min
O=c1c(O)c(-c2ccc(O)cc2)oc2cc(O)cc(O)c12 [kaempferol] | 36.6 min
O=CC(=O)O [glyoxylic acid] | 1.3 min
O=C(O)c1c(O)cccc1O [2,6-dihydroxybenzoic acid] | 16.9 min
O=C1OC(C(O)CO)C(=O)C1=O (stereo not drawn) [dehydroascorbic acid] | 1.72 min
NC(CCC(=O)NC(CSSCC(NC(=O)CCC(N)C(=O)O)C(=O)NCC(=O)O)C(=O)NCC(=O)O)C(=O)O (stereo not drawn) [glutathione disulfide] | 9.68 min
CC(C)(CO)C(O)C(=O)NCCC(=O)O [D-pantothenic acid] | 14.3 min
C1COCCN1 [morpholine] | 1.4 min
COC1C(O)C(O)C(O)C(O)C1O (stereo not drawn) [pinitol] | 1.41 min

SMILES | LC retention time
CCCCCCCCCCCCCCCCCCCCCCCC(=O)O [lignoceric acid] | 60.2 min
O=C(O)Cc1c[nH]c2ccccc12 [1H-indol-3-ylacetic acid] | 26.6 min
CC=CC=CC(=O)O [sorbic acid] | 25.1 min
COc1cc(-c2oc3cc(O)cc(O)c3c(=O)c2OC2OC(COC3OC(C)C(O)C(O)C3O)C(O)C(O)C2O)ccc1O (stereo not drawn) [isorhamnetin 3-rutinoside] | 31.7 min
O=C1c2c(O)cc(O)cc2OC(c2ccc(O)c(O)c2)C1O (stereo not drawn) [taxifolin] | 25.3 min
COC(=O)C1=COC(O)C2C(CO)=CCC12 (stereo not drawn) [genipin] | 24.2 min
CC1OC(OCC2OC(Oc3c(-c4ccc(O)cc4)oc4cc(OC5OC(C)C(O)C(O)C5O)cc(O)c4c3=O)C(O)C(O)C2O)C(O)C(O)C1O (stereo not drawn) [robinin] | 28.6 min
C[n+]1cccc(C(=O)[O-])c1 [trigonelline] | 1.67 min
Nc1ccc(C(=O)O)cc1 [4-aminobenzoic acid] | 12.3 min
OCC(O)C(O)C(O)C(O)CO (stereo not drawn) [mannitol] | 1.38 min
CCCCCCCCCCCCCCCCCCCCCC(=O)OC [methyl behenate] | 61.2 min
CC1=C(C=CC(C)O)C(C)(C)CCC1 (stereo not drawn) [b-ionol] | 46.3 min
OCC1OC(Oc2cc(O)cc(C=Cc3ccc(O)cc3)c2)C(O)C(O)C1O (stereo not drawn) [cis-piceid] | 27.2 min
N[C@@H](Cc1cnc[nH]1)C(=O)O [L-histidine] | 1.2 min
O=C(O)CCCCC(=O)O [adipic acid] | 15.5 min
OCC(O)C(O)C(O)CO (stereo not drawn) [adonitol] | 1.38 min
